Experiment [1] deals with HeLa cells. The experiment in a line: Apoptosis induction in HeLa cells (FACS, propidium iodide and annexin V). It counts as cell-based. The following applies: Homo sapiens, 48 hr incubation. As to the method: FIG. 12. Apoptosis induction in HeLa cells following 48 hr incubation with Compound (1) IC50=70 nM. Apoptosis was evaluated by FACS, labeling the cells with propidium iodide and annexin V.
FIG. 13. Apoptosis induction in HeLa cells following 48 hr incubation with Compound (1). IC50=70 nM. Apoptosis was evaluated by FACS, labeling the cells with propidium iodide and annexin V.

The subject of experiment [2] is HeLa cells. The experiment in a line: Lactate levels in culture media of HeLa cells (BioVision kit). The following applies: 20 μM. It counts as cell-based. As for the experimental part:
FIG. 14. Lactate levels in the culture media of HeLa cells incubated with 20 μM Compound (1). Lactate levels were assayed with a BioVision kit (Catalog #K607-100).

For orientation: IC50 means the midpoint of a concentration-inhibition curve. Regarding `O=C(N1CCN(c2ccccc2)CC1)N1c2ccccc2Oc2ccccc21` [Compound (1)], the half-maximal inhibitory concentration (IC50) in the experiment with HeLa cells [1] worked out at 70 nM. In addition, the “lactate levels in the culture media” value in the experiment with HeLa cells [2] is reported as “lowered lactate levels”.
